SMILES strings stand for the structures.

Here are results for 43 molecules from patent US6627611B2, “C-glycosides and preparation of thereof as antidiabetic agents” (Kotobuki Pharmaceutical Co Ltd, priority 2000, dated 2003).

One data set deals with male SD rats. Description: Measurement of urinary glucose excretion in rats. Format: in vivo, rat. The settings on record: 10 mg/kg i.p. administered twice at an 8 hr interval, urine collected for 24 hr after first administration. The protocol:
The pharmacological test of urinary glucose excretion in rat is described that follow.
Measurement of Urinary Glucose Excretion in Rats
20 mg of test compounds were dissolved in 10 mL saline containing 20% dimethylsulufoxide.
Test compound (10 mg/5 mL/kg, i.p.) was administered twice an 8 hr interval to male SD rats (6 weeks old, 3 animals/group). An equal volume of vehicle was given to the control group. Urine was collected for 24 hr after first administration in metabolic cages.
The urine was centrifuged and urine volume was measured. Glucose concentration (mg/dl) was assayed using Glucose CII test Wako (Wako Pure Chemicals, Japan). The amounts of glucose excretion during 24 hr was calculated from the following equation.
Glucose secretion (mg/24 hr)=(A×B)/100
(A; the urine volume, B; the glucose concentration)
Consider `COc1cc(O)c(C(=O)/C=C/c2ccc3occc3c2)c(CC2OC(CO)C(O)C(O)C2O)c1` [Compound 1, 3-(Benzo[b]furan-5-yl)-1-(2′-β-D-glucopyranosylmethyl-6′-hydroxy-4′-methoxy)acrylophenone], for which the “Urinary glucose excretion (mg/24 hr)” value came out at 4.1 mg/24 hr.
In the case of `COc1cc(O)c(C(=O)/C=C/c2ccc3occc3c2)cc1[C@@H]1O[C@H](CO)[C@@H](O)[C@H](O)[C@H]1O` [Compound 3, 3-(Benzo[b]furan-5-yl)-3′-β-D-glucopyranosyl-6′-hydroxy-4′-methoxyacrylophenone], the “Urinary glucose excretion (mg/24 hr)” value is recorded as 241 mg/24 hr.
Take `COC(=O)OC[C@H]1O[C@@H](c2cc(C(=O)/C=C/c3ccc4occc4c3)c(O)cc2OC)[C@H](O)[C@@H](O)[C@@H]1O` [Compound 4, 3-(Benzo[b]furan-5-yl)-3′-(6-O-methoxycarbonyl-β-D-glucopyranosyl)-6′-hydroxy-4′-methoxy-acrylophenone]: the “Urinary glucose excretion (mg/24 hr)” value is reported as 289 mg/24 hr.
Same read-out and setting: with `COC(=O)OCC1OC(c2cc(C(=O)CCc3ccc4occc4c3)c(O)cc2OC)C(O)C(O)C1O` [Compound 5, 3-(Benzo[b]furan-5-yl)-3′-(6-O-methoxycarbonyl-β-D-glucopyranosyl)-6′-hydroxy-4′-methoxy-propiopenone] the figure was 228 mg/24 hr; with `CCOc1cc(OCC)c(C2OC(CO)C(O)C(O)C2O)cc1C(=O)/C=C/c1ccc2occc2c1` (stereo not shown) [Compound 6], 8.9 mg/24 hr; with `COc1cc(O)c(C(=O)CCc2ccc3occc3c2)cc1C1OC(CO)C(O)C(O)C1O` (stereo not shown) [Compound 22], 124 mg/24 hr.

Tested on in a further data set: not given
Assay: not given
Details: not given
As for `COc1cc(O)c(C(=O)/C=C/c2ccc3occc3c2)c(CC2OC(CO)C(O)C(O)C2O)c1` [Compound 1, 3-(Benzo[b]furan-5-yl)-1-(2′-β-D-glucopyranosylmethyl-6′-hydroxy-4′-methoxy)acrylophenone], the melting point (as a rule, the temperature, or range, at which the solid turns liquid) is 135 to 136 °C.
Regarding `COc1cc(OC)c(C2OC(CO)C(O)C(O)C2O)cc1C(=O)/C=C/c1ccc2occc2c1` (stereo not shown) [Compound 2], the melting point lay within 226 to 228 °C.
Turning to `COc1cc(O)c(C(=O)/C=C/c2ccc3occc3c2)cc1[C@@H]1O[C@H](CO)[C@@H](O)[C@H](O)[C@H]1O` [Compound 3, 3-(Benzo[b]furan-5-yl)-3′-β-D-glucopyranosyl-6′-hydroxy-4′-methoxyacrylophenone], the melting point was above 250 °C.
In turn, `COC(=O)OC[C@H]1O[C@@H](c2cc(C(=O)/C=C/c3ccc4occc4c3)c(O)cc2OC)[C@H](O)[C@@H](O)[C@@H]1O` [Compound 4, 3-(Benzo[b]furan-5-yl)-3′-(6-O-methoxycarbonyl-β-D-glucopyranosyl)-6′-hydroxy-4′-methoxy-acrylophenone] gave a melting point of 195 to 196 °C.
With `COC(=O)OCC1OC(c2cc(C(=O)CCc3ccc4occc4c3)c(O)cc2OC)C(O)C(O)C1O` [Compound 5, 3-(Benzo[b]furan-5-yl)-3′-(6-O-methoxycarbonyl-β-D-glucopyranosyl)-6′-hydroxy-4′-methoxy-propiopenone], the melting point was 120 to 121 °C.
The same measure, in the same setting: for `CCOc1cc(OCC)c(C2OC(CO)C(O)C(O)C2O)cc1C(=O)/C=C/c1ccc2occc2c1` (stereo not shown) [Compound 6] the value was 120 to 121 °C; for `CCOc1cc(O)c(C(=O)/C=C/c2ccc3occc3c2)cc1C1OC(CO)C(O)C(O)C1O` (stereo not shown) [Compound 7], 189 to 190 °C.
On the same count and under the same terms, with `Cc1cc(O)c(C(=O)/C=C/c2ccc3occc3c2)cc1C1OC(CO)C(O)C(O)C1O` (stereo not shown) [Compound 8] the figure was 228 to 229 °C; with `COc1cc(C)c(C(=O)/C=C/c2ccc3occc3c2)cc1C1OC(CO)C(O)C(O)C1O` (stereo not shown) [Compound 9], 137 to 138 °C; with `COc1cc(O)c(C(=O)/C=C/c2ccc(C)cc2)cc1C1OC(CO)C(O)C(O)C1O` (stereo not shown) [Compound 10], 181 to 183 °C.
`COc1cc(O)c(C(=O)/C=C/c2ccsc2)cc1C1OC(CO)C(O)C(O)C1O` (stereo not shown) [Compound 11] came in with a melting point of 239 to 242 °C.
Turning to `COc1cc(O)c(C(=O)/C=C/c2ccncc2)cc1C1OC(CO)C(O)C(O)C1O` (stereo not shown) [Compound 12], the melting point lay in the range of 183 to 185 °C.
`COc1cc(O)c(C(=O)/C=C/c2ccc3ccccc3c2)cc1C1OC(CO)C(O)C(O)C1O` (stereo not shown) [Compound 13] yielded a melting point of 236 to 239 °C.
`COc1cc(O)c(C(=O)/C=C/c2ccnc3ccccc23)cc1C1OC(CO)C(O)C(O)C1O` (stereo not shown) [Compound 14] displayed a melting point of 226 to 228 °C.
Same read-out and setting: for `COc1cc(O)c(C(=O)/C=C/c2ccc3c(c2)CCC3)cc1C1OC(CO)C(O)C(O)C1O` (stereo not shown) [Compound 15] the value was 245 to 248 °C; for `COc1cc(O)c(C(=O)/C=C/c2ccc3occc3c2)c(OC)c1C1OC(CO)C(O)C(O)C1O` (stereo not shown) [Compound 16], 198 to 199 °C.
With `COc1cc(O)c(C(=O)/C=C/c2ccc3[nH]ccc3c2)cc1C1OC(CO)C(O)C(O)C1O` (stereo not shown) [Compound 17], the melting point was in the range of 194 to 196 °C.
The same measure, in the same setting: with `COc1cc(O)c(C(=O)/C=C/c2ccc3sccc3c2)cc1C1OC(CO)C(O)C(O)C1O` (stereo not shown) [Compound 18] the figure was 217 to 220 °C; with `COc1cc(O)c(C(=O)/C=C/c2ccc3c(c2)CCO3)cc1C1OC(CO)C(O)C(O)C1O` (stereo not shown) [Compound 19], 276 to 279 °C.
On the same count and under the same terms, for `COc1cc(O)c(C(=O)/C=C/c2cc3ccccc3o2)cc1C1OC(CO)C(O)C(O)C1O` (stereo not shown) [Compound 20] the value was 256 to 257 °C.
Same read-out and setting: for `COc1cc(O)c(C(=O)CCc2ccc3occc3c2)c(C[C@@H]2O[C@H](CO)[C@@H](O)[C@H](O)[C@H]2O)c1` [Compound 21, 3-(Benzo[b]furan-5-yl)-2′-β-D-glucopyranosylmethyl-6′-hydroxy-4′-methoxypropiophenone] the value was 103 to 105 °C; for `COc1cc(O)c(C(=O)CCc2ccc3occc3c2)cc1C1OC(CO)C(O)C(O)C1O` (stereo not shown) [Compound 22], 226 to 228 °C.
`COc1cc(OC)c(C2OC(CO)C(O)C(O)C2O)cc1C(=O)CCc1ccc2occc2c1` (stereo not shown) [Compound 23] had a melting point of 112 to 113 °C.
`CCOc1cc(OCC)c(C2OC(CO)C(O)C(O)C2O)cc1C(=O)CCc1ccc2occc2c1` (stereo not shown) [Compound 24] showed a melting point of 89 to 90 °C.
Still for that read-out and setting: for `CCOc1cc(O)c(C(=O)CCc2ccc3occc3c2)cc1C1OC(CO)C(O)C(O)C1O` (stereo not shown) [Compound 25] the value was 175 to 176 °C; for `Cc1cc(O)c(C(=O)CCc2ccc3occc3c2)cc1C1OC(CO)C(O)C(O)C1O` (stereo not shown) [Compound 26], 191 to 192 °C.
Still for that read-out and setting: with `COc1cc(C)c(C(=O)CCc2ccc3occc3c2)cc1C1OC(CO)C(O)C(O)C1O` (stereo not shown) [Compound 27] the figure was 118 to 119 °C; with `COc1cc(O)c(C(=O)CCc2ccc3c(c2)CCC3)cc1C1OC(CO)C(O)C(O)C1O` (stereo not shown) [Compound 28], 194 to 196 °C.
The molecule `COc1cc(O)c(C(=O)CCc2ccc3occc3c2)c(OC)c1C1OC(CO)C(O)C(O)C1O` (stereo not shown) [Compound 29] returned a melting point of 131 to 132 °C.
Molecule `COc1cc(O)c(C(=O)CCc2ccc3[nH]ccc3c2)cc1C1OC(CO)C(O)C(O)C1O` (stereo not shown) [Compound 30] gave a melting point of 66 to 71 °C.
The same measure, in the same setting: with `COc1cc(O)c(C(=O)CCc2cc3ccccc3o2)cc1C1OC(CO)C(O)C(O)C1O` (stereo not shown) [Compound 31] the figure was 216 to 217 °C.
With `COc1cc(O)c(C(=O)/C=C/c2ccc3occc3c2)cc1C1OC(COC(=O)CCC(=O)O)C(O)C(O)C1O` (stereo not shown) [Compound 42], the melting point lay in the range of 71 to 73 °C.
Same read-out and setting: for `COc1cc(O)c(C(=O)/C=C/c2ccc3occc3c2)cc1C1OC(C(=O)[O-])C(O)C(O)C1O.[Na+]` [Compound 43, 3-(Benzo[b]furan-5-yl)-3′-(6-carboxysodium salt-β-D-glucopyranosyl)4′-methoxy-6′-hydroxy-acrylophenone] the value was 115 to 117 °C; for `COc1cc(O)c(C(=O)/C=C/c2ccc3occc3c2)cc1C1OC(COS(=O)(=O)O)C(O)C(O)C1O` [Compound 44, 3-(Benzo[b]furan-5-yl)-3′-(6-sulfonic acid-β-D-glucopyranosyl)-4′-methoxy-6′-hydroxyacrylophenone], 177 to 179 °C.
Same read-out and setting: with `COc1cc(O)c(C(=O)CCc2ccc3occc3c2)cc1C1OC(COC(=O)CCC(=O)O)C(O)C(O)C1O` (stereo not shown) [Compound 47] the figure was 113 to 114 °C; with `COc1cc(O)c(C(=O)CCc2ccc3occc3c2)cc1C1OC(COC(=O)CCC(=O)[O-])C(O)C(O)C1O.[Na+]` (stereo not shown) [Compound 48], 262 °C; with `Cc1cc(O)c(C(=O)/C=C/c2ccc3occc3c2)c(CC2OC(CO)C(O)C(O)C2O)c1` [Compound 51, 3-(Benzo[b]furan-5-yl)-1-[6-hydroxy-4-methyl-2-{(β-D-glucopyranos-1-yl)methyl}]acrylophenone], 103 to 105 °C.
`Cc1cc(O)c(C(=O)CCc2ccc3occc3c2)c(CC2OC(CO)C(O)C(O)C2O)c1` [Compound 52, 3-(Benzo[b]furan-5-yl)-1-[6-hydroxy-4-methyl-2-{(β-D-glucopyranos-1-yl)methyl}]propiophenone] returned a melting point of 85 to 87 °C.
Still for that read-out and setting: for `COC(=O)OCC1OC(Cc2cc(C)cc(O)c2C(=O)CCc2ccc3occc3c2)C(O)C(O)C1O` [Compound 53, 3-Benzo [b]furan-5-yl-1-(6-hydroxy-4-methyl-2-{[6-methoxycarbonyl-β-D-glucopyranos-1-yl]methyl})propiophenone] the value was 58 to 60 °C; for `O=C(CCc1ccc(O)cc1)c1c(O)cc(O)cc1CC1OC(CO)C(O)C(O)C1O` [Compound 54, 1-[2,4-Dihydroxy-6-{(β-D-glicopyranosyl)methyl}phenyl]-3-(4-hydroxyphenyl)propan-1-one], 227 to 228 °C; for `COc1cc(C)cc(CC2OC(CO)C(O)C(O)C2O)c1C(=O)/C=C/c1ccc2occc2c1` (stereo not shown) [Compound 55], 80 to 83 °C.
For the molecule `COc1cc(C)cc(CC2OC(CO)C(O)C(O)C2O)c1C(=O)/C=C/c1ccc2occc2c1` (stereo not shown) [Compound 57], the melting point fell in the range of 118 to 120 °C.
The same measure, in the same setting: for `COC(=O)OCC1OC(Cc2cc(O)cc(O)c2C(=O)CCc2ccc(O)cc2)C(O)C(O)C1O` (stereo not shown) [Compound 58] the value was 199 to 201 °C.
